Experimental data as given in ChEMBL document CHEMBL1201862, “PubChem BioAssay data set” (2004).
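Compound exposure: 48 hours, 5 concentrations, 96-well plates. The concentration for 50% growth inhibition is given as GI50.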 Activity calls are given as the source filed them. No stated cut-off is given here; in the data, active = GI50 up to about 1.1 µM and inactive = higher.

Columns and labels:
Assay in all cases: NCI anticancer screen, dose series, 48 h
A498 = system: A498
ACHN = system: ACHN
BT-549 = system: BT-549
CCRF-CEM = system: CCRF-CEM
HCT-116 = system: HCT-116
HCT-15 = system: HCT-15
MOLT-4 = system: MOLT-4
Malme-3M = system: Malme-3M
NCI-H226 = system: NCI-H226
NCI-H23 = system: NCI-H23
NCI-H460 = system: NCI-H460
OVCAR-4 = system: OVCAR-4
SF-268 = system: SF-268
SK-MEL-28 = system: SK-MEL-28
SK-MEL-2 = system: SK-MEL-2
SK-MEL-5 = system: SK-MEL-5
SK-OV-3 = system: SK-OV-3
SNB-19 = system: SNB-19
T47D = system: T47D
UO-31 = system: UO-31

## CCCCN(Cc1ccccc1)/C(=N/C#N)N(Cc1ccccc1)Cc1ccccc1
A498
  GI50: 36.6 µM (inactive)
ACHN
  GI50: 12.1 µM (inactive)
BT-549
  GI50: 19.2 µM (inactive)
CCRF-CEM
  GI50: 26.7 µM (inactive)
HCT-116
  GI50: 5.16 µM (inactive)
HCT-15
  GI50: 14.4 µM
MOLT-4
  GI50: > 100 µM (inactive)
Malme-3M
  GI50: 8.59 µM (inactive)
NCI-H226
  GI50: 23.1 µM (inactive)
NCI-H23
  GI50: 11.3 µM (inactive)
NCI-H460
  GI50: 9.84 µM (inactive)
OVCAR-4
  GI50: 15.8 µM (inactive)
SF-268
  GI50: 18.8 µM (inactive)
SK-MEL-28
  GI50: 29 µM (inactive)
SK-MEL-2
  GI50: 13.1 µM (inactive)
SK-MEL-5
  GI50: 14.8 µM (inactive)
SK-OV-3
  GI50: 30.2 µM (inactive)
SNB-19
  GI50: 20.7 µM (inactive)
T47D
  GI50: 15.8 µM (inactive)
UO-31
  GI50: 14.6 µM (inactive)

## COc1cc2c(cc1O)C(c1cc(O)c(O)c(OC)c1)C(O)(C(=O)O)C(CO)C2O (stereo not given)
A498
  GI50: > 100 µM (inactive)
ACHN
  GI50: > 100 µM (inactive)
BT-549
  GI50: > 100 µM (inactive)
CCRF-CEM
  GI50: 2.62 µM (inactive)
HCT-116
  GI50: 18.3 µM (inactive)
HCT-15
  GI50: > 100 µM
MOLT-4
  GI50: 20.3 µM (inactive)
Malme-3M
  GI50: > 100 µM (inactive)
NCI-H226
  GI50: > 100 µM (inactive)
NCI-H23
  GI50: > 100 µM (inactive)
NCI-H460
  GI50: > 100 µM (inactive)
OVCAR-4
  GI50: > 100 µM (inactive)
SF-268
  GI50: > 100 µM (inactive)
SK-MEL-28
  GI50: > 100 µM (inactive)
SK-MEL-2
  GI50: > 100 µM (inactive)
SK-MEL-5
  GI50: > 100 µM (inactive)
SK-OV-3
  GI50: > 100 µM (inactive)
SNB-19
  GI50: > 100 µM (inactive)
T47D
  GI50: > 100 µM (inactive)
UO-31
  GI50: > 100 µM (inactive)

## CC[C@]12C=CCN3CCC4(c5cc(/N=N/c6ccc([N+](=O)[O-])cc6)c(OC)cc5N(C)[C@H]4[C@@](O)(C(=O)OC)[C@@H]1OC(C)=O)[C@@H]32 (stereo not given in full)
A498
  GI50: 14.1 µM (inactive)
ACHN
  GI50: 15 µM (inactive)
BT-549
  GI50: 72.4 µM (inactive)
CCRF-CEM
  GI50: 1.77 µM (inactive)
HCT-116
  GI50: 10.7 µM (inactive)
HCT-15
  GI50: 13.5 µM
MOLT-4
  GI50: 3.01 µM (inactive)
Malme-3M
  GI50: 16.1 µM (inactive)
NCI-H226
  GI50: 5.5 µM (inactive)
NCI-H23
  GI50: 10.5 µM (inactive)
NCI-H460
  GI50: 19.8 µM (inactive)
OVCAR-4
  GI50: 9.59 µM (inactive)
SF-268
  GI50: 16.2 µM (inactive)
SK-MEL-28
  GI50: 11.8 µM (inactive)
SK-MEL-2
  GI50: 13 µM (inactive)
SK-MEL-5
  GI50: 12.4 µM (inactive)
SK-OV-3
  GI50: 18 µM (inactive)
SNB-19
  GI50: 26.6 µM (inactive)
T47D
  GI50: 13.3 µM (inactive)
UO-31
  GI50: 11.2 µM (inactive)

## C=C1C(=O)OC2CC(C)C3CC(O)OC(OCC)C3(C)CC12 (stereo not given)
A498
  GI50: 28.1 µM (inactive)
ACHN
  GI50: 15.4 µM (inactive)
BT-549
  GI50: > 41.8 µM (inactive)
CCRF-CEM
  GI50: 6.46 µM (inactive)
HCT-116
  GI50: 11.9 µM (inactive)
HCT-15
  GI50: 8.38 µM
MOLT-4
  GI50: 16.7 µM (inactive)
Malme-3M
  GI50: 10.9 µM (inactive)
NCI-H226
  GI50: 25.3 µM (inactive)
NCI-H23
  GI50: 17.1 µM (inactive)
NCI-H460
  GI50: 18.6 µM (inactive)
OVCAR-4
  GI50: 21.7 µM (inactive)
SF-268
  GI50: 18 µM (inactive)
SK-MEL-28
  GI50: 13 µM (inactive)
SK-MEL-2
  GI50: 15.3 µM (inactive)
SK-MEL-5
  GI50: 15.5 µM (inactive)
SK-OV-3
  GI50: 27.5 µM (inactive)
SNB-19
  GI50: 26 µM (inactive)
T47D
  GI50: 16.6 µM (inactive)
UO-31
  GI50: 22.3 µM (inactive)

## CC(=O)N(CCc1ccccc1)C(C#N)c1ccc(OCCCCCCCCCCOc2ccc(C(C#N)N(CCc3ccccc3)C(C)=O)cc2)cc1 (stereo not given)
A498
  GI50: 31.3 µM (inactive)
ACHN
  GI50: 66.4 µM (inactive)
BT-549
  GI50: 33 µM (inactive)
CCRF-CEM
  GI50: > 100 µM (inactive)
HCT-116
  GI50: > 100 µM (inactive)
HCT-15
  GI50: 99.1 µM
MOLT-4
  GI50: > 100 µM (inactive)
Malme-3M
  GI50: > 100 µM (inactive)
NCI-H226
  GI50: 22 µM (inactive)
NCI-H23
  GI50: 44.9 µM (inactive)
NCI-H460
  GI50: 94.8 µM (inactive)
OVCAR-4
  GI50: 5.41 µM (inactive)
SF-268
  GI50: 21.7 µM (inactive)
SK-MEL-28
  GI50: > 100 µM (inactive)
SK-MEL-2
  GI50: 47.2 µM (inactive)
SK-MEL-5
  GI50: > 100 µM (inactive)
SK-OV-3
  GI50: 22.9 µM (inactive)
SNB-19
  GI50: 20.5 µM (inactive)
T47D
  GI50: 41 µM (inactive)
UO-31
  GI50: 62.2 µM (inactive)
